# Test results taken from PMC9103715, “New Panx-1 Blockers: Synthesis, Biological Evaluation and Molecular Dynamic Studies” (International Journal of Molecular Sciences, 2022).
# “Also recorded” adds a separate entry of the source.
# Legend:
# [1] = test system: Panx-1; conditions: cited from earlier work; for IC50: Panx-1 blockers, reference compounds
# [2] = molecular target: T1, Panx-1 channels (Mus musculus, UniProt Q9JIP4); test: Voltage clamp on Xenopus laevis oocytes expressing Panx-1 channels; assay type: cell-based; conditions: for % inhibition of Panx1-mediated membrane currents: Figure 4 dose-response plot, concentration not printed in the legend; for IC50: dose-response curves, Panx1-mediated membrane currents in oocytes
# T1 construct: expressed in transfected cells; host or cells: Xenopus laevis oocytes injected with in vitro-transcribed mRNA
# T1 sequence (Q9JIP4 whole entry): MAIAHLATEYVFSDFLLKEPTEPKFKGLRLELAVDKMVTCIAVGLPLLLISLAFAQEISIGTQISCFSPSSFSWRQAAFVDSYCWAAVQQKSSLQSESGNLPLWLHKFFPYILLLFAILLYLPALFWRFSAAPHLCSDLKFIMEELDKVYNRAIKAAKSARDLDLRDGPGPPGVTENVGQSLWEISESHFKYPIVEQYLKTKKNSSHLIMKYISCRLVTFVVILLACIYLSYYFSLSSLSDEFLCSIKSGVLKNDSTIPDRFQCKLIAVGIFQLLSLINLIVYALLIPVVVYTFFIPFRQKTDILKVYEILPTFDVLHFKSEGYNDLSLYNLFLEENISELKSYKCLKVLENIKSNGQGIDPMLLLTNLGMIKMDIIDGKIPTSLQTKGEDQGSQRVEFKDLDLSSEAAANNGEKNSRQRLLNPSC
# [3] = test system: oxaliplatin-induced thermal allodynia in mice; test: Cold plate test in mouse model of oxaliplatin-induced neuropathic pain; assay type: in vivo; conditions: oxaliplatin-treated mice; for time of maximum anti-allodynic effect: 3 nmol intrathecally; for pain threshold (licking latency), Cold plate test: 1 nmol and 3 nmol intrathecally, vs oxaliplatin + vehicle
# Description: The two selected Panx-1 blockers, 4 and 13, were tested in a mouse model of oxaliplatin-induced neuropathic pain that involves this channel. Oxaliplatin is a third-generation platinum-based chemotherapeutic agent that, similar to other platinum-based compounds, interferes with the proliferation of tumor cells, leading to cancer cell destruction […] Recent studies have highlighted the efficacy of selective Panx1 antagonists in […] evoked by repeated administrations of antineoplastic drug, making Panx1 a possible therapeutic target in reducing chemotherapeutic-induced neuropathic pain [16, 23]. In this experiment we tested the anti-hypersensitivity properties of two novel Panx1 antagonists in a mouse model of oxaliplatin-induced thermal allodynia. […] This time delay is reported here as licking latency (s). The two compounds were acutely injected intrathecally at 1 nmol and 3 nmol in oxaliplatin-treated animals. […] The effect recorded was dose-dependent (Figure 5b).
# Eight-week-old male CD-1 mice (Envigo, Varese, Italy) weighing approximately 20–25 g at the beginning of the experimental procedure were used. Animals were housed in the Centro Stabulazione Animali da Laboratorio (CeSAL; University of Florence, Italy) and used at least 1 week after their arrival; 10 mice were housed per cage (size 26 cm × 41 cm). Animals were fed a standard laboratory diet and tap water ad libitum and kept at 23 ± 1 °C with a 12 h light/dark cycle (light at 7 a.m.).
# Mice treated with oxaliplatin (Carbosynth, Pangbourne, UK; 2.4 mg kg^−1) were administered intraperitoneally (i.p.) for 2 weeks Oxaliplatin was dissolved in a 5% glucose solution. Control animals received an equivalent volume of vehicle. Behavioural tests were performed starting from day 14, when neuropathy was well established.
# Compounds 4 and 13 were intrathecally (i.t.) injected in conscious mice as previously described. Compound 4 was dissolved in sterile saline solution while compound 13 was dissolved in a mixture consisting of PEG400, TWEEN 20 and sterile saline solution (1:1:3, respectively). Briefly, a 25 µL Hamilton syringe connected to a 30-gauge needle was intervertebrally inserted between the L4 and L5 region, and advanced 6 mm into the lumbar enlargement of the spinal cord. Behavioural measurements were performed before and 15 min, 30 min, 45 min, and 60 min after the administration of compounds.
# Thermal allodynia was assessed using the Cold-plate test. With minimal animal-handler interaction, mice were taken from home-cages, and placed onto the surface of the cold-plate (Ugo Basile, Varese, Italy) maintained at a constant temperature of 4 ± 1 °C. Ambulation was restricted by a cylindrical plexiglas chamber (diameter: 10 cm, height: 15 cm), with open top. A timer controlled by foot peddle began timing response latency from the moment the mouse was placed onto the cold-plate. Pain-related behaviour (licking of the hind paw) was observed, and the time (seconds) of the first sign was recorded. The cut-off time of the latency of paw lifting or licking was set at 30 s.
# Figure 5 Pain-relieving effect of (a) 4 and (b) 13 on oxaliplatin-induced thermal allodynia in mice. Cold plate test. […] Pain-related behavior (i.e., lifting and licking of the hind paw) was observed and the time (s) of the first sign was recorded. ** p < 0.01 vs. vehicle + vehicle treated animals; ^ p < 0.05 and ^^ p < 0.01 vs. oxaliplatin + vehicle treated animals. […]
# [4] = molecular target: T1, Panx-1 channels; test: Voltage clamp on Xenopus laevis oocytes expressing Panx-1 channels; assay type: cell-based; conditions: for inhibition at 50 µM: read-out: I (%) inhibition of Panx-1 currents
# Description: All new products were screened as Panx-1 blockers at the dose of 50 µM using the Voltage Clamp technique on Xenopus Laevis oocytes expressing Panx-1 channels. The membrane potential of the cells was held at -60 mV and voltage steps to +60 mV were applied to induce membrane currents. To verify that Panx-1 channels carried the currents, in each experiment 100 µM carbenoxolone (CBX) was applied. At this concentration, CBX is known to yield 100% inhibition of Panx-1 activity. If present, leak currents resistant to CBX were subtracted from the total current to assess % inhibition mediated by the tested compounds. Table 1 and Table 2 report the electrophysiological results of naphthalene-2-sulphonic acid derivatives bearing at position 5 an amino- (3a–e, 4 and 5) or amide group (7a–g, 8 and 9) and of compound 13.
# Oocytes of Xenopus laevis are prepared as previously described in [39] where the oocytes are isolated from surgically removed ovary segments incubated in an Oocyte Ringe solution Ca2-free (OR2: in mM: 82.5 NaCl, 2.5 KCl, 1.0 MgCl2, […], 1.0 Na2HPO4 e 5.0 HEPES, pH 7.5) with 2 mg/mL of collagenase and antibiotics (10,000 U/mL penicillin and 10 mg/mL of streptomycin) stirred at room temperature for 3 h. After being washed with OR2, oocytes free of follicular cells and that have a uniform pigmentation are chosen and stored in OR2 for 18 °C.
# Mouse pannexin1, in pCS2, was linearised with NotI. In vitro transcription was performed with the polymerase SP6, using the Message Machine kit (Ambion). mRNA was quantified by absorbance (260 nm), and the proportion of full-length transcripts was checked by agarose gel electrophoresis. In vitro-transcribed mRNA (~20 nL) was injected into Xenopus laevis oocytes.
# Whole-cell membrane currents of oocytes were measured using a two-electrode voltage clamp (Gene Clamp 500B, Axon Instruments/Molecular Devices Sunnyvale, Union City, CA, USA). Glass pipettes were pulled using a P-97 Flaming/Brown type puller (Sutter, Novato, CA, USA). The recording chamber was perfused continuously with frog Ringer (OR) solution (in mM: 82.5 NaCl, 2.5 KCl, 1 CaCl2, 1 MgCl2, 1 Na2HPO4, and 5 HEPES, pH 7.5).
# Membrane conductance was determined using voltage pulses, and the pulse-induced current amplitudes were divided by the amplitudes of the voltage steps. For calculation of % inhibition, leak currents were subtracted. Typically, leak currents after the interventions were smaller than at the beginning of the experiment and this smaller value was used for the subtraction to avoid overestimation of the inhibitory effect. For an independent measure of the leak current, oocytes at the end of the experiment were exposed to 100 µM carbenoxolone, which is known to close Panx1 channels 100%. Oocytes expressing Panx1 were held at −60 mV, and pulses to +60 mV were applied to transiently open the channels by means of the voltage gate. Pulses 5 s in duration were applied at 0.1 Hz for current and conductance measurements.
# [5] = 50 µM, voltage clamp, Xenopus laevis oocytes expressing Panx-1 channels
% inhibition of Panx1-mediated membrane currents [2],"inhibition at 50 µM [4, 5]",IC50 [2],SMILES,IC50 [1],time of maximum anti-allodynic effect [3],"pain threshold (licking latency), Cold plate test [3]",also measured
,,,CCN(Cc1cccc(S(=O)(=O)O)c1)c1ccc(C(=C2C=CC(=[N+](CC)Cc3cccc(S(=O)(=O)O)c3)C=C2)c2ccccc2S(=O)(=O)[O-])cc1 [Brilliant Blue FCF],0.27 µM,,,
100%,,,"CC1(C)[C@@H](OC(=O)CCC(=O)O)CC[C@]2(C)[C@H]3C(=O)C=C4[C@@H]5C[C@@](C)(C(=O)O)CC[C@]5(C)CC[C@@]4(C)[C@]3(C)CC[C@@H]12 [Carbenoxolone, carbenoxolone]",10 µM,,,inhibition of Panx-1 activity ([1]; 100 µM carbenoxolone): 100%
,97 ± 1.5%,8.8 µM,"O=C(O)c1ccc(CNc2cccc3cc(S(=O)(=O)O)ccc23)cc1 [Compound 4, 4-[(6-Sulfonaphthalen-1-yl)aminomethyl]benzoic Acid]",,45 min,significantly increase the mouse pain threshold; also recorded: significant enhancement of the pain threshold,time after injection from which the enhancement of pain threshold is significant ([3]; intrathecal injection): 30 min
100%,94%,1.2 µM,"O=C(O)c1ccc(CN(Cc2ccc(C(=O)O)cc2)S(=O)(=O)c2ccc(C(=O)O)cc2)cc1 [Compound 13, 4,4′-{{[(4-Carboxyphenyl)sulfonyl]azanediyl}bis(methylene)}dibenzoic acid]",,45 min,significantly increase the mouse pain threshold; also recorded: significant increase of the mouse pain threshold,"I (%) inhibition of Panx-1 currents [4, 5]: 93.7 ± 2.3%"
,,,"O=C(O)c1cc([N+](=O)[O-])ccc1NCCCc1ccccc1 [NPPB, 5-nitro-2-(3-phenylpropylamino)benzoic acid]",50 µM,,,
,29%,,"CCCN(CCC)S(=O)(=O)c1ccc(C(=O)O)cc1 [Probenecid, reference compound]",150 µM,,,classification as active or inactive Panx-1 blocker ([4]; grouping chosen for the virtual screening): inactive
